According to patent publication US4313943A, “7-Chloro-2,3-dihydro-5-phenyl-1-propargyl-1H-1,4-benzodiazepine-2-one, and a pharmaceutical composition thereof” (priority 1972, dated 1982):
“And” between values parts separate entries of the source, which are not always exact repeats. Identical values can stand only once. “Also recorded” adds a separate entry of the source.

Legend:
Type in all cases: in vivo
[1] = Effect on muscular relaxation in mice (30° inclined screen, Randall); details: for ED50: Mus musculus, po, muscular relaxation, read-out: ED50 (and C.L.)
Experimental: The method utilized was the procedure described by Randall (1961) using a 30° inclined screen.

[2] = Hypnotic activity comparison (Janssen 1959)
Experimental: Toxicity in test animals to the test compounds in terms of LD50 after oral and intraperitoneal administration was determined according to the procedure of Litchfield and Wilcoxan (1949) and the hypnotic effect on test animals was determined in accordance with the method of Janssen (1959).

[3] = Potentiation of narcosis (hexobarbitone sodium) in the mouse, Winter method; details: hexobarbitone sodium 80 mg/kg i.p., control 33.3
Experimental: The Winter method was used, in which a state of narcosis is induced by the intraperitoneal administration of 80 mg/kg of hexobarbitone sodium, and is assessed by the loss of the righting reflex in the test animal. […] orally to the animals, in doses shown in Table 4, as suspensions in 1% sodium carboxymethyl cellulose solution; and the prolongation of narcosis in the animals thus treated was observed, by comparison with controls which received only the hexobarbitone administration.

[4] = Emotional conditioning response (CER) in rats (Brady, Skinner box)
Description: The method utilized that was published by Brady (1956) using a Skinner Box and a combination of a sound, a light and an electrical shock to produce anxiety in the test animals.
The more an animal is anxious, the less important is the score. When a test compound is a powerful anxiolytic, the value of the score is proportional to the dosage.

[5] = Motor coordination in the rat (Rota-rod method, Dunham and Miya)
Experimental: The method of Dunham and Miya was used, which consists in placing the test animal on a rod rotating at 14 r.p.m., and recording the percentage of animals which fall off within 2 minutes. The test compound 1 was administered orally to the animals, in the various doses shown in Table 1, as a suspension in 1% sodium carboxymethyl cellulose solution. The animals were then tested 30 minutes and 60 minutes after the administration of the test compound.

[6] = Anti-convulsant activity in the mouse (convulsions induced by 1,5-pentamethylenetetrazole); details: 30 min before pentamethylenetetrazole s.c.
Experimental: The inhibition of convulsions induced by 1,5-pentamethylenetetrazole was tested by the Clen method. The test compounds were administered orally to the mice, in the doses shown in Table 3, in the form of suspensions in 1% sodium carboxymethyl cellulose solution, and 30 minutes later the test animals were injected subcutaneously with […] of 1,5-pentamethylenetetrazole. The number of mice protected from lethal extensorial tonic spasms, per group of 10 test animals, was recorded.

[7] = Myorelaxant activity in the mouse (traction test)
Experimental: This was determined by the traction test of Joulon Courvoisier, following Boissier and Simon, in which the mouse is suspended by its front paws to a horizontal metal wire, and the animal's capacity to get up with its hind paws is observed. The test compounds were administered orally to the animals, in the doses shown in Table 5, as suspensions in 1% sodium carboxymethyl cellulose solution; and the animals were tested 30 minutes and 180 minutes after administration. The test animals were deemed to be myorelaxant if unable to get up within 5 seconds.

dorsal hippocampus = assay: Hippocampal after-discharge (stimulation of dorsal hippocampus); details: 7.5 mg/kg intragastric; for Duration of Hippocampal After-Discharge: individual animals
Experimental: The test animals for this study were also prepared according to the technique described by Monnier and Gangloff (infra B, page 30) and the animals were kept in restraint cages in a relatively soundproof room.
The activity of test compounds 1 and 4 was assessed in identical groups of test animals for each compound, with identical numbers of animals for hippocampal after-discharges and for amygdaloid after-discharges. A dose of 7.5 mg/kg of each test compound was adminstered by the intragastric route. In each animal, after-discharges were triggered every 45 minutes after the administration of a test compound.
The stimulation consisted of a series of waves with a duration of 3 m sec., delivered at a frequency of 40 c/sec., with 5 seconds as the total duration of the stimulation. The shocks were delivered by a Neurovar neurostimulator (Alvar Electronic), coupled to a CRC cathode oscilloscope (type OC 343). Cerebral electric activity was recorded by REEGA MINI HUIT electroencephalograph (Alvar Electronic).

[8] = Electrogenesis of various subcortical centers; details: for EEG activity of the hippocampus: in vivo
Experimental: This study was conducted with test animals weighing between 2.6 and 2.8 kg, following the stereotaxic method of Monnier and Gangloff (Atlas et techniques stereotaxique pour le cerveau du lopin eveille, 1961, Elsevier Pub. Co.), permitting the stimulation of certain subcortical structures as well as a simultaneous detection and recording of their electrical activities, which were compared to that of reference cortical electrodes. In this study, the subcortical centers considered were the caudate nucleus, the dorsal hippocampus, the lateral thalamus, the mesenephalic reticular formation, and the hypothalamic reticular formation. Test compounds 1 and 4 were administered by the intragastric route with an identical dose of 7.5 mg/kg.
Spontaneous activity in the subcortical centers of the unanesthetized animals is characterized by desynchronized activity consisting of high amplitude and relatively slow rhythms (4 to 5 c/sec.), alternating with low amplitude rapid rhythms (12 to 13 c/sec.). Tracings from the hippocampus and caudate nucleus sometimes takes the form of bursts, which is less commonly the case from the thalamus. These may occur at the same time as bursts of rapid spikes arising from the frontal cortex. During periods of arousal, this desynchronized activity is followed by a synchronized theta rhythm (7 to 8 c/sec.) from the hippocampus and caudate nucleus and from the median thalamus, whereas the cortical and reticular electrical activities are transformed into ultra-rapid and low voltage rhythms (30μ volts).

C#CCN1C(=O)CN=C(c2ccccc2)c2cc(Cl)ccc21 [Compound 1, 7-chloro-2,3-dihydro-5-phenyl-1-propargyl-1H-1,4-benzodiazepin-2-one]
% Relaxed Animals ([1]; 5 mg/kg/os): 10%
% Relaxed Animals ([1]; 10 mg/kg/os): 20%
% Relaxed Animals ([1]; 20 mg/kg/os): 50%
% Relaxed Animals ([1]; 40 mg/kg/os): 70%
ED50 [1]: 21.5 mg/kg
times less relaxant than compound 3 ([1]; mouse, in vivo): about 1.5 times
times less relaxant than compound 4 ([1]; mouse, in vivo): about 5.6 times
ED50 ([2]; Table 11, species not given): 857 mg/kg
hypnotic activity compared with Compounds 3 or 4 ([2]; in vivo): lower hypnotic activity
Duration of narcosis ([3]; 1.0 mg/kg oral): 70.7 min
Duration of narcosis ([3]; 2.0 mg/kg oral): 111.3 min
Number of Responses, After - CER ([4]; 1.25 mg/kg/os): 77.83 ± 20.41
Number of Responses, Before - CER ([4]; 1.25 mg/kg/os): 94.67 ± 13.86
Number of Responses, CER ([4]; 1.25 mg/kg/os): 27.50 ± 11.32
Number of Responses, After - CER ([4]; 2.5 mg/kg/os): 112.30 ± 17.56
Number of Responses, Before - CER ([4]; 2.5 mg/kg/os): 142.10 ± 20.03
Number of Responses, CER ([4]; 2.5 mg/kg/os): 62.10 ± 9.59
Number of Responses, After - CER ([4]; 5 mg/kg/os): 128.75 ± 17.13
Number of Responses, Before - CER ([4]; 5 mg/kg/os): 127.13 ± 20.89
Number of Responses, CER ([4]; 5 mg/kg/os): 63.50 ± 14.96
activity in antagonizing CER compared with Compound 3 ([4]; rat, in vivo): about twice as active as Compound 3
effectiveness in reducing anxiety compared with Composition 4 ([4]; rat, in vivo): twice as effective in reducing anxiety as Composition 4
Percentage of animals falling within 2 minutes ([5]; 3 mg/kg oral, 30 minutes after administration): 0%
Percentage of animals falling within 2 minutes ([5]; 3 mg/kg oral, 60 minutes after administration): 0%
Percentage of animals falling within 2 minutes ([5]; 6 mg/kg oral, 30 minutes after administration): 50%
Percentage of animals falling within 2 minutes ([5]; 6 mg/kg oral, 60 minutes after administration): 17%
Percentage of animals falling within 2 minutes ([5]; 12 mg/kg oral, 30 minutes after administration): 100%
Percentage of animals falling within 2 minutes ([5]; 12 mg/kg oral, 60 minutes after administration): 50%
No. of Animals Protected ([6]; 0.5 mg/kg oral): 0/10
No. of Animals Protected ([6]; 1.0 mg/kg oral): 5/10
No. of Animals Protected ([6]; 2.0 mg/kg oral): 9/10
Percentage of myorelaxant animals ([7]; 1.5 mg/kg oral, after 30 minutes): 20%
Percentage of myorelaxant animals ([7]; 1.5 mg/kg oral, after 180 minutes): 15%
Percentage of myorelaxant animals ([7]; 3.0 mg/kg oral, after 30 minutes): 60%
Percentage of myorelaxant animals ([7]; 3.0 mg/kg oral, after 180 minutes): 55%
Percentage of myorelaxant animals ([7]; 6.0 mg/kg oral, after 30 minutes): 80%
Percentage of myorelaxant animals ([7]; 6.0 mg/kg oral, after 180 minutes): 70%
effect on duration of hippocampal after-discharge (dorsal hippocampus): markedly increased the duration of after-discharges
Duration of Hippocampal After-Discharge (dorsal hippocampus; 45 Mins.): 25 s and 14 s and 23 s and 18 s
Duration of Hippocampal After-Discharge (dorsal hippocampus; 90 Mins.): 27 s and 21 s and 25 s and 11 s and 23 s
Duration of Hippocampal After-Discharge (dorsal hippocampus; 135 Mins.): 27 s and 16 s and 26 s and 19 s and 25 s
Duration of Hippocampal After-Discharge (dorsal hippocampus; 180 Mins.): 25 s and 23 s and 24 s and 27 s
Duration of Hippocampal After-Discharge (dorsal hippocampus; 225 Mins.): 29 s and 26 s and 25 s and 23 s and 34 s
Duration of Hippocampal After-Discharge (dorsal hippocampus; 270 Mins.): 23 s and 26 s and 21 s and 40 s
caudate nucleus bursts of rapid spikes, time of maximum periodicity ([8]; 7.5 mg/kg intragastric): 45 min
caudate nucleus spikes ([8]; 7.5 mg/kg intragastric): definite effect of compound 1 on the caudate nucleus
thalamic rhythms ([8]; 7.5 mg/kg intragastric): greater amplitude and lower frequency
EEG activity of the hippocampus [8]: slow and of high amplitude; also recorded: increase the amplitude of these activities and also reduce their frequency

C#CCN1C(=O)CN=C(c2ccccc2Cl)c2cc(Cl)ccc21 [Compound 4, 7-chloro-2,3-dihydro-5-(2-chlorophenyl)-1-propargyl-1,H-1,4-benzodiazepine-2-one]
% Relaxed Animals ([1]; 2 mg/kg/os): 40%
% Relaxed Animals ([1]; 8 mg/kg/os): 60%
% Relaxed Animals ([1]; 32 mg/kg/os): 80%
Potency Against Comp. 1 ([1]; C.L. (1.67-18.80), X^2 parallelism 2.03): 5.60
ED50 [1]: 3.93 mg/kg
Number of Responses, After - CER ([4]; 1.25 mg/kg/os): 86.43 ± 22.13
Number of Responses, Before - CER ([4]; 1.25 mg/kg/os): 81.28 ± 16.17
Number of Responses, CER ([4]; 1.25 mg/kg/os): 26.25 ± 4.57
Number of Responses, After - CER ([4]; 2.5 mg/kg/os): 79.75 ± 15.24
Number of Responses, Before - CER ([4]; 2.5 mg/kg/os): 66.75 ± 11.80
Number of Responses, CER ([4]; 2.5 mg/kg/os): 31.12 ± 6.54
Number of Responses, After - CER ([4]; 5 mg/kg/os): 79.00 ± 20.03
Number of Responses, Before - CER ([4]; 5 mg/kg/os): 65.00 ± 14.89
Number of Responses, CER ([4]; 5 mg/kg/os): 38.37 ± 8.76
effect on duration of hippocampal after-discharge (dorsal hippocampus): no apparent effect on the duration of the paroxysm
Duration of Hippocampal After-Discharge (dorsal hippocampus; 45 Mins.): 10 s and 20 s and 18 s and 14 s and 12 s
Duration of Hippocampal After-Discharge (dorsal hippocampus; 90 Mins.): 7 s and 16 s and 20 s and 15 s and 11 s
Duration of Hippocampal After-Discharge (dorsal hippocampus; 135 Mins.): 6 s and 15 s and 17.5 s and 13.5 s and 14 s
Duration of Hippocampal After-Discharge (dorsal hippocampus; 180 Mins.): 8 s and 10.5 s and 18 s and 15 s
Duration of Hippocampal After-Discharge (dorsal hippocampus; 225 Mins.): 9 s and 19 s and 18.5 s and 13 s and 10 s
Duration of Hippocampal After-Discharge (dorsal hippocampus; 270 Mins.): 10 s and 22 s and 27 s and 13 s and 16 s
caudate nucleus spikes ([8]; 7.5 mg/kg intragastric): less distinguishable
duration of slowing of mesencephalic and hypothalamic reticular formation activity ([8]; 7.5 mg/kg intragastric): ≥ 135 min
thalamic rhythms ([8]; 7.5 mg/kg intragastric): greater amplitude and lower frequency
EEG activity of the hippocampus [8]: slow and of high amplitude; also recorded: increase the amplitude of these activities and also reduce their frequency
